One series addresses T1, recombinant human KIF18A (Homo sapiens, UniProt Q8NI77).
T1 construct: purchased GenScript
Briefly: Inhibition on KIF18A enzyme activity (ADP-Glo). The following applies: recombinant human KIF18A 100 nM, ATP 60 μM. It counts as biochemical. The method in brief:
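Recombinant human KIF18A (100 nM final) was preincubated with compound for 20 min at room temperature, then ATP (60 μM final) was added for 20 min. ADP formed was quantified by ADP-Glo as a luminescence read-out.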

The next series deals with HT-29 cells. Briefly: Inhibition on HT-29 cell proliferation (CellTiter-Glo). The following applies: Homo sapiens, HT-29 cells (TP53 R273H mutation), 120 hours. The series is classed as cell-based.
Series [1] is described as follows: Pharmacokinetic testing in mice. It counts as in vivo. The following applies: male, mouse, ICR mice, plasma. On the procedure: ICR mice were taken as test animals, and intragastrically administered with a control compound AMG650 and compounds 1, 18 and 29 of the present invention, and then drug concentrations in plasma at different moments were determined by an LC/MS/MS method, so as to study pharmacokinetic characteristics of the compounds of the present invention in the mice.
Control compound AMG650, and Compounds 1, 18 and 29.
ICR mice, male, 27.3-30.3 g, purchased from Vital River Laboratory Animal Technology Co., Ltd.
A proper amount of to-be-tested compound was weighed, proper amounts of DMA (N,N-dimethylacetamide), CrEL (polyoxyethylene 35 castor oil) and 5% GS (5% glucose injection) were added in sequence, and the obtained system was evenly mixed by ultrasonic vortex to prepare a 1 mg/mL preparation, wherein DMA, CrEL and 5% GS=10:10:80 (v:v:v).
ICR mice in each to-be-tested compound injection group (9 mice in each group) were fasted overnight and then intragastrically administered with the compound (PO, an administration dosage of the compound was 10 mg/kg and an administration volume of the compound was 10 mL/kg), and were fed 4 hours after administration.
0.25 hours, 0.5 hours, 1 hour, 2 hours, 4 hours, 8 hours, 10 hours and 24 hours before and after administration, about […] of blood was collected through an orbit, and a complete blood sample was placed in an EDTA-K2-containing anticoagulation tube. The collected blood sample was placed on ice, and plasma was centrifugally separated (centrifugation conditions: 1500 g, 10 minutes). The collected plasma was stored at −40~−20° C. before analysis.
A content of the to-be-tested compound in the plasma of the mice after intragastric administration was determined by LC-MS/MS.

For orientation: IC50 means the midpoint of a concentration-inhibition curve. As usually defined, the half-life is the time in which the quantity being followed falls by half.

SMILES strings stand for the structures.

T1 sequence (Q8NI77 whole entry): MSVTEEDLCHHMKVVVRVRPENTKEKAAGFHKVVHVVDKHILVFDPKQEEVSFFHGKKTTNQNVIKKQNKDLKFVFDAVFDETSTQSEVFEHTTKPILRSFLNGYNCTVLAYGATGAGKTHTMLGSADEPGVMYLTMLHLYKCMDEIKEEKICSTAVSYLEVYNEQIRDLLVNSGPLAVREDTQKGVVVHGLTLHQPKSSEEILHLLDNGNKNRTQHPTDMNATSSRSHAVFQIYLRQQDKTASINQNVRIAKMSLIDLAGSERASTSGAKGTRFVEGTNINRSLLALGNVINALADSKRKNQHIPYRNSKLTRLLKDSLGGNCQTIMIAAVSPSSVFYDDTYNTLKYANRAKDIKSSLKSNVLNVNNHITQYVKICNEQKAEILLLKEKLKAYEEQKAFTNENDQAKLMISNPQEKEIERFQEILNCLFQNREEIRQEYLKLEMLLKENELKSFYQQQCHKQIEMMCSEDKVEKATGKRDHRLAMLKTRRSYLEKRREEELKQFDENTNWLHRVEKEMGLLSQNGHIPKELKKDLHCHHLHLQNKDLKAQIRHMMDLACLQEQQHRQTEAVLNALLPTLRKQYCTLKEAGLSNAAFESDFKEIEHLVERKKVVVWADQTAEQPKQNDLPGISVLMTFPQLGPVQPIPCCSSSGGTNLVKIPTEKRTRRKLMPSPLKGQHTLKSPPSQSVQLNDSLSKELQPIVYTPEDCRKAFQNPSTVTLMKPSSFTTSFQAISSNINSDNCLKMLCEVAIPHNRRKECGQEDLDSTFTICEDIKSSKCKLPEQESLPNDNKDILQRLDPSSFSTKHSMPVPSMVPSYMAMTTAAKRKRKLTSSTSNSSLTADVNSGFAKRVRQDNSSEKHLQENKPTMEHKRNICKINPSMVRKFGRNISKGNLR
T1 sequence (P68363 whole entry partner): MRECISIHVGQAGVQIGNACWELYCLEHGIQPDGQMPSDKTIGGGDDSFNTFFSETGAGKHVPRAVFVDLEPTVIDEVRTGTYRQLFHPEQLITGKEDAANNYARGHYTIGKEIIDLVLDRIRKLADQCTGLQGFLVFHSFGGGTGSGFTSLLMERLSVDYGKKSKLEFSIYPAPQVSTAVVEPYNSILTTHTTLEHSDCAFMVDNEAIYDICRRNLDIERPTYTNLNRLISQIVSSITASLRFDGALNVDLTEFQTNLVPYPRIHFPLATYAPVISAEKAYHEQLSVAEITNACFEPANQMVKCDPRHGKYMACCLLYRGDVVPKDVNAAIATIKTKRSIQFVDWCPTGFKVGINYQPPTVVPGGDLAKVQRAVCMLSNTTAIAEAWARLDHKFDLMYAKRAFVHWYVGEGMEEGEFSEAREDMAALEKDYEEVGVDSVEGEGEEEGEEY
T1 sequence (Q9BVA1 whole entry partner): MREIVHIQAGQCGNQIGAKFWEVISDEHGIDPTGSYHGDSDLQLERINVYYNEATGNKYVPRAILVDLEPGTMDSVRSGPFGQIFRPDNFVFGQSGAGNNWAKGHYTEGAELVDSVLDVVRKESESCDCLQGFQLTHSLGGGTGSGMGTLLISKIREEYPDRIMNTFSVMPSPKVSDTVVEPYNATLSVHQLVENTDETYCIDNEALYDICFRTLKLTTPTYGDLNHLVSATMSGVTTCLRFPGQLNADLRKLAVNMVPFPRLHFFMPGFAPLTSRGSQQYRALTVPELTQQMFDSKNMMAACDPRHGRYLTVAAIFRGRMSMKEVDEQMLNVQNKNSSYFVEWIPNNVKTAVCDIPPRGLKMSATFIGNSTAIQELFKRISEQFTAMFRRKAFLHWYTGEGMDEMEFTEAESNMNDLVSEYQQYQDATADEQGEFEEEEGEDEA

In the case of `CCS(=O)(=O)Nc1ccc(C(=O)Nc2cc3c(c(N4CCC(F)(F)CC4)c2)OCC3)c(N2CCC3(CC2)CC3)c1` [Example 1, N-(7-(4,4-difluoropiperidin-1-yl)-2,3-dihydrobenzofuran-5-yl)-4-(ethylsulfonamido)-2-(6-azaspiro[2.5]octan-6-yl)benzamide], the results for the concentration for half-maximal inhibition (IC50) at recombinant human KIF18A and in the series on HT-29 cells were 0.052 µM and 0.0024 µM, respectively. The half-life in series [1] (10 mg/kg, oral administration (10 mg/mL), read-out: Half-life period T½ (converted)) was 7.36 h. For the same compound, the Cmax in series [1] (10 mg/kg, oral administration (10 mg/mL), read-out: Plasma concentration Cmax) worked out at 12400 ng/mL. Also, the AUC(0-inf) in series [1] (oral administration (10 mg/kg), read-out: Area under the curve AUC0-∞) was 95200 ng·h/mL.
